# From US6131226A, “1,4-dihydropyridine compounds as bradykinin antagonists” (Pfizer Inc., priority 1996, dated 2000)
# Tested on: bradykinin-induced plasma leakage in rat urinary bladder
# Assay: bradykinin-induced plasma leakage test in rat urinary bladder
# Type: in vivo
# Conditions: test compound at a concentration of 1.5 μM, i.v. 3 ml/kg, bradykinin 10 nmol/kg i.v.
# Procedure: The bradykinin antagonist activity of the dihydropyridine compounds in vivo is evaluated by a plasma leakage test. This test essentially involve determining the concentration of the individual compound required to reduce by 50% the amount of bradykinin-induced plasma leakage in rat urinary bladder, thereby affording characteristic ED50 values for each compounds tested.
# More specifically, the assay is carried out as follows. 3.5-week old male Sprague-Dawlew rats are purchased from Charles River Japan Inc. The rats are fed on stock diet (CRF from Charles River Japan, Inc.) and maintained under the standard conditions (temperature, 23±1° C. and humidity 55±5%) for at least 3 days. The rats are fasted overnight prior to the experiments. Each test group consists of 5 rats. […]
# Captopril (5 mg/kg of body weight) is intraperitoneally (i.p.) injected to the rats, and 20 min later the rats are anesthetized by an administration of Nembutal (Abbott) ([…] of body weight). […] The absorbance of the extract is measured spectrophotometrically at 605 nm to determined the dye concentration. The effect of the individual test compound is calculated as a percentage of the amount of Evans blue leaked into the urinary bladder as compared to the control (saline for the test compounds).
smiles,measurement,value
"COC(=O)C1=C(CCc2ccccc2OC)NC(CC(=O)N2CCN(C3CC4CCC(C3)N4C)CC2)=C(C(=O)OC)C1c1c(Cl)cccc1Cl (stereo not shown) [dimethyl 4-(2,6-dichlorophenyl)-6-[2-(2-methoxyphenyl)ethyl]-2-[4-(8-methyl-8-azabicyclo[3.2.1]oct-3-yl)-1-piperazinyl]carbonylmethyl-1,4-dihydropyridine-3,5-dicarboxylate]",inhibition of urinary bladder leakage (Evans blue),did not show significant in vivo activity
